# According to paper PMC7367283, “A PIP2 substitute mediates voltage sensor-pore coupling in KCNQ activation” (Communications Biology, 2020):
# Target: T1, Kir1.1 (Homo sapiens, UniProt P48048)
# T1 sequence (P48048 1-391): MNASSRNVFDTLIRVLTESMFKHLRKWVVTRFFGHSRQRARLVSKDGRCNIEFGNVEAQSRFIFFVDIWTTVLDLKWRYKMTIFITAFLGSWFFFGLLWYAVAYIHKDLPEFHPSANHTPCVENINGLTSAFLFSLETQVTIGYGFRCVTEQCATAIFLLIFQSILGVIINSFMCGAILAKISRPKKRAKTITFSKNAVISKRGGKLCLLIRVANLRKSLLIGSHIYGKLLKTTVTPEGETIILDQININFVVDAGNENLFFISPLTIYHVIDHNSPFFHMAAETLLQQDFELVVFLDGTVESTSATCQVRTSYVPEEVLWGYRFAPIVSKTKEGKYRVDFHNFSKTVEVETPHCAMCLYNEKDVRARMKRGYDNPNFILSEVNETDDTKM
# Assay: Two-electrode voltage clamp of Kir1.1 in Xenopus oocytes
# Format: cell-based
# Settings: 10 µM CP1; for Current (Fig. 6b): mean
# From the text: Since CP1 has a similar effect to PIP2 in mediating VSD-pore coupling in KCNQ channels, we tested if CP1 has effects on other ion channels that are also sensitive to PIP2 or are voltage activated and share general structural features of the VSD and the pore with KCNQ. […] On the other hand, NaV1.5 and KV4.2 are voltage-gated ion channels.
# Fig. 6 Effects of CP1 on other ion channels expressed in Xenopus oocytes. a Currents of Kir1.1, CaV1.2, NaV1.5, hERG, and KV4.2 before and after application of 10 µM CP1, respectively. The voltages for holding, test, and returning pulses were Kir1.1, 0 mV, −100 to +60 mV, 0; CaV1.2, −100 mV, −100 to +60, −100 mV; NaV1.5, −100, −120 to +40 mV, −120 mV; hERG, −80 mV, −90 to +60 mV, −60 mV; KV4.2, −80 mV, −100 mV to +80 mV, −40 mV; HCN4, −30 mV, −30 to −140 mV, −120 mV. b Current–voltage relations of Kir1.1 channel in the absence or presence of 10 µM CP1 (n = 7). c–g G–V relations of indicated channels with and without 10 µM CP1. The ΔV1/2 of G–V relations (mV) are CaV1.2, 3.38 ± 0.71 mV (c); NaV1.5, −2.26 ± 0.95 mV (d); hERG, 6.85 ± 1.81 mV (e); KV 4.2, −2.26 ± 2.88 mV (f); HCN4, 17.13 ± 1.59 mV (g).
# Complementary DNA (cDNA) encoding human KCNQ1 (UniProtKB/Swiss‐Prot under accession no. P51787), KCNQ2 (O43526), KCNQ3 (O43525), KCNE1 (P15382), Kir1.1 (P48048), hERG (Q12809), KV4.2 (Q63881), NaV1.5 (Q14524), NaV β1 (Q07699), CaV1.2 (Q13936), CaV β1a (Q02641), CaV α2/δ1 (P54289), and HCN4 (Q9Y3Q4) were subcloned into oocyte expression vectors, respectively. Site-directed mutations of the KCNQ1 channel were all produced by overlap extension polymerase chain reaction (PCR) with high-fidelity Pfu polymerase (Stratagene, CA). The presence of the desired mutation was verified by sequencing the PCR-amplified regions. All the primer sequences used in this study are available in Supplementary Table 1. The complementary RNA (cRNA) of all these channels and mutations was transcribed in vitro with the T3, T7, or SP6 polymerase mMessage mMachine kit (Invitrogen, Thermo Fisher Scientific, MO).
# The whole-oocyte ionic currents were recorded with a GeneClamp 500B amplifier (Axon Instruments, CA) or iTEV90 amplifier (HEKA, Germany) and then sampled at 1 kHz and low-pass-filtered at 2 kHz. The Patchmaster software (HEKA, Germany) was used to acquire data. The Kir1.1 current was recorded with a high K^+ bath solution containing (in mM) 96 KCl, 4 NaCl, 1 CaCl2, 2 MgCl2, and 10 HEPES, pH 7.3–7.4. The HCN4 current was recorded in ND66 solution containing (in mM) 66 NaCl, 32 KCl, 1.8 CaCl2, 1 MgCl2, and 5 HEPES, pH 7.6. All the other potassium channels were recorded in ND96 solution. The currents of CaV1.2 channel were recorded in 40 mM Ba^2+ bath solution containing (in mM) 40 Ba(OH)2, 50 TEA-OH, 2 KOH, and 5 HEPES, adjusted to pH 7.4 with methanesulfonic acid. CP1 (DISODIUM 5-BROMO-2-[9-CHLORO-3-(SULFONATOOXY) NAPHTHO [1,2-B] THIEN-2-YL]-1H-INDOL-3-YL SULFATE, Sigma-Aldrich, MO) and Chromanol 293B (Sigma-Aldrich, MO) were dissolved in bath solutions. All the chemicals were purchased from Sigma-Aldrich. To measure the I–V relations of the Kir1.1 channel, the test voltage was set from −100 to +60 mV for 1 s with 20-mV increments. The test pulses were stepped from a holding potential of 0 mV and then stepped back to 0 mV. The HCN4 currents were recorded by a test pulse between −30 and −140 mV in 10-mV step from a holding potential of −30 mV. For all the other potassium channels and CaV1.2 channel, the holding potential was −80 or −100 mV, and the test pulse was applied with 10-mV increment, which was followed with a repolarization pulse at −40 mV before returning to the holding potential. The durations of test and the repolarization pulse vary for different channels to allow the activation and deactivation of the channel to reach their steady states.
compound,measurement,setting,value
"O=S(=O)([O-])Oc1c(-c2sc3c(ccc4cccc(Cl)c43)c2OS(=O)(=O)[O-])[nH]c2ccc(Br)cc12.[Na+].[Na+] [CP1, DISODIUM 5-BROMO-2-[9-CHLORO-3-(SULFONATOOXY) NAPHTHO [1,2-B] THIEN-2-YL]-1H-INDOL-3-YL SULFATE]",effect on currents of Kir1.1,,little effect
same,Current (Fig. 6b),voltage 0 mV,-0.8738 µA
same,Current (Fig. 6b),voltage 20 mV,8.1285 µA
same,Current (Fig. 6b),voltage 40 mV,17.0203 µA
same,Current (Fig. 6b),voltage 60 mV,25.9074 µA
same,Current (Fig. 6b),voltage -20 mV,-9.7186 µA
same,Current (Fig. 6b),voltage -40 mV,-18.5616 µA
same,Current (Fig. 6b),voltage -60 mV,-27.3089 µA
same,Current (Fig. 6b),voltage -80 mV,-36.1588 µA
same,Current (Fig. 6b),voltage -100 mV,-44.9245 µA
